# In ChEMBL document CHEMBL1139626, “Total asymmetric synthesis of (-)-conduramine B-1 and of its enantiomer. N-Benzyl derivatives of conduramine B-1 are beta-glucosidase inhibitors” (Bioorg Med Chem Lett, 2005):
# The source made the active and inactive calls. No cut-off for these calls is given here.
# Key:
# [1] = Inhibitory concentration against Beta Glucosidase from Almonds; parameters: species or system Prunus dulcis
# [2] = Inhibitory activity against Beta Glucosidase from Almonds; parameters: species or system Prunus dulcis
# Beta-glucosidase A [3] = molecular target: T1, Beta-glucosidase A (Caldicellulosiruptor saccharolyticus, UniProt P10482); assay: Inhibitory concentration against Beta Glucosidase from Caldocellum saccharolyticum
# [4] = Inhibition against Alpha Glucosidase from yeast at 1 mM; (ni=no inhibition)
# [5] = molecular target: T2, Exo-1,4-beta-xylosidase xlnD (Aspergillus niger) (UniProt O00089); assay: Percent inhibition against Beta-xylosidase from Aspergillus niger at 1 mM
# T2 sequence (whole entry): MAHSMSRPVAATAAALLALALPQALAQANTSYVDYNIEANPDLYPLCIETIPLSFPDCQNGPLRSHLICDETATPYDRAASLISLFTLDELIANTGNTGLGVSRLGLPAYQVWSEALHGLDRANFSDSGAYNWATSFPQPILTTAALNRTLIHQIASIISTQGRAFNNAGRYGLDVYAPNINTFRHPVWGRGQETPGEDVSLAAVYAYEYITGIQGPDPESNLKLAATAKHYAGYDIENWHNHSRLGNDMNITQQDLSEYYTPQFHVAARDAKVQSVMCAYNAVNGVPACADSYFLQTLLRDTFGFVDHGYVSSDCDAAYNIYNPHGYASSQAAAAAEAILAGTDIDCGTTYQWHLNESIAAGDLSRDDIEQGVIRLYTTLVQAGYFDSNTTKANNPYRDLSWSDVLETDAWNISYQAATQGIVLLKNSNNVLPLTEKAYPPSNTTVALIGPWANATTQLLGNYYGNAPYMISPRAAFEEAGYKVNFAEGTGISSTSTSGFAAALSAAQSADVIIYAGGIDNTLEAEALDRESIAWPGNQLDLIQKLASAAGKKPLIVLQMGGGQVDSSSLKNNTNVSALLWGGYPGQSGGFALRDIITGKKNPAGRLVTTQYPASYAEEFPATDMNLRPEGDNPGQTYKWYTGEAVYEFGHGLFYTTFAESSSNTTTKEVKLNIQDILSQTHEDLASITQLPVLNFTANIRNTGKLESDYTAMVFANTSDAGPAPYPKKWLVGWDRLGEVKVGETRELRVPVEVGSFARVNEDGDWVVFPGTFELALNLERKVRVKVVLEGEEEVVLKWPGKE
# Prunus dulcis [6] = assay: Percent inhibition against Beta Glucosidase from Almonds at 1 mM
# [7] = molecular target: T3, Alpha-glucosidase (Oryza sativa Japonica Group) (UniProt Q9LGC6); assay: Inhibition against Alpha Glucosidase from rice at 1 mM; (ni=no inhibition)
# T3 sequence (whole entry): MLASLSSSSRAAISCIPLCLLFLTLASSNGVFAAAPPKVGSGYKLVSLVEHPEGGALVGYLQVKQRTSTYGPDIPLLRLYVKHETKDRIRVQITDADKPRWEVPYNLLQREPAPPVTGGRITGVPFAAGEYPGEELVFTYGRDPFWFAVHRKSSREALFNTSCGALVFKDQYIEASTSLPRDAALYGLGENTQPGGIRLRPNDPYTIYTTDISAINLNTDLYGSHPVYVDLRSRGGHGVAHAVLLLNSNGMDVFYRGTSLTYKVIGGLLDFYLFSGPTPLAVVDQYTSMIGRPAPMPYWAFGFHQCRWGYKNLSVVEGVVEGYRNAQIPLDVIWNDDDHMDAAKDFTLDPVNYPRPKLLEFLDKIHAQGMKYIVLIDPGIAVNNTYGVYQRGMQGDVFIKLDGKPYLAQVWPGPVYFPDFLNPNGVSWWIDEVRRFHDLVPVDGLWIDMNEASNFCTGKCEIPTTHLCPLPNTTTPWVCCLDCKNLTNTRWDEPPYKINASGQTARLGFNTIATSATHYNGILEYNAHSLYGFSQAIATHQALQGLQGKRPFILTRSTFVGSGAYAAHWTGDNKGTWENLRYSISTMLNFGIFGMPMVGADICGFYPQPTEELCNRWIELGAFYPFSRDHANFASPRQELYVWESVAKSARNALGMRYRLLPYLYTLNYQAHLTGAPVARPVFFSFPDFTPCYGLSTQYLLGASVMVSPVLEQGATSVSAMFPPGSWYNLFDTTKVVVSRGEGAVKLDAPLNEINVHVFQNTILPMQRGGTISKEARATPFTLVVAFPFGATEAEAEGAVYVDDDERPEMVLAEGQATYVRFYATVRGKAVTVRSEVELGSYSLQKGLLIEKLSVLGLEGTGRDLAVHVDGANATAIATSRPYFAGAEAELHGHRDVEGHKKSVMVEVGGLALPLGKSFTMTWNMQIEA
# [8] = molecular target: Glucoamylase (Aspergillus niger) (UniProt P69328); assay: Inhibition against Amyloglucosidase from Aspergillus niger at 1 mM; (ni=no inhibition)
# [9] = molecular target: T4, Glucoamylase 1 (Rhizopus oryzae) (UniProt P07683); assay: Inhibition against Amyloglucosidase from Rhizopus mold at 1 mM; (ni=no inhibition)
# T4 sequence (whole entry): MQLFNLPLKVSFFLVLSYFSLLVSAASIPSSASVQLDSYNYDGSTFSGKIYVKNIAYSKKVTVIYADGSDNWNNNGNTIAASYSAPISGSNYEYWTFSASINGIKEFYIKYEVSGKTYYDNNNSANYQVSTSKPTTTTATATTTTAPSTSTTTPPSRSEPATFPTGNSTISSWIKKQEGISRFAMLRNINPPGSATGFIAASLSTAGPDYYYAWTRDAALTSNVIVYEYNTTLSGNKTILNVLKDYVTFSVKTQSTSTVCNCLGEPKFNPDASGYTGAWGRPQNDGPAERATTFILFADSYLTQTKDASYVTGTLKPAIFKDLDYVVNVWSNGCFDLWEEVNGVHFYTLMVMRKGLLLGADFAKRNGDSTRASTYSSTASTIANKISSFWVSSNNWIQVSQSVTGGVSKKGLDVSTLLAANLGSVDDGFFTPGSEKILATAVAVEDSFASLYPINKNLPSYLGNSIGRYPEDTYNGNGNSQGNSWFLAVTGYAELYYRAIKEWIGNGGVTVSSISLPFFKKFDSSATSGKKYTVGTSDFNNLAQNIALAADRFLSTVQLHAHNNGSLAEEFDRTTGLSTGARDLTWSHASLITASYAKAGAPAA
# [10] = molecular target: Beta-glucosidase A (Caldicellulosiruptor saccharolyticus) (UniProt P10482); assay: Percent inhibition against Beta Glucosidase from Caldocellum saccharolyticum at 1 mM
# [11] = molecular target: T2, Exo-1,4-beta-xylosidase xlnD (Aspergillus niger); assay: Inhibition against Beta-xylosidase from Aspergillus niger at 1 mM concentration
# [12] = molecular target: T4, Glucoamylase 1 (Rhizopus oryzae); assay: Percent inhibition against Amyloglucosidase from Rhizopus mold at 1 mM
# Prunus dulcis [13] = assay: Inhibition against Beta Glucosidase from Almonds at 1 mM
# [14] = molecular target: T2, Exo-1,4-beta-xylosidase xlnD (Aspergillus niger); assay: Inhibition against Beta-xylosidase from Aspergillus niger at 1 mM; (ni=no inhibition)
# [15] = molecular target: Glucoamylase (Aspergillus niger) (UniProt P69328); assay: Percent inhibition against Amyloglucosidase from Aspergillus niger at 1 mM concentration
# [16] = molecular target: T2, Exo-1,4-beta-xylosidase xlnD (Aspergillus niger); assay: Percent inhibition against Beta-xylosidase from Aspergillus niger at 1 mM; (ni=no inhibition)
# Beta-glucosidase A [17] = molecular target: T1, Beta-glucosidase A; assay: Inhibitory concentration against Beta Glucosidase Caldocellum saccharolyticum
# [18] = Percent inhibition against Alpha Glucosidase from yeast at 1 mM
# Prunus dulcis [19] = assay: Inhibition against Beta Glucosidase from Almonds at 1 mM; (ni=no inhibition)
# [20] = molecular target: Beta-glucosidase A (Caldicellulosiruptor saccharolyticus) (UniProt P10482); assay: Inhibition against Beta Glucosidase from Caldocellum saccharolyticum at 1 mM; (ni=no inhibition)
# [21] = Inhibitory concentration against Beta Glucosidase Almonds; parameters: species or system Prunus dulcis
# Sequence of Glucoamylase (Aspergillus niger) (P69328 whole entry): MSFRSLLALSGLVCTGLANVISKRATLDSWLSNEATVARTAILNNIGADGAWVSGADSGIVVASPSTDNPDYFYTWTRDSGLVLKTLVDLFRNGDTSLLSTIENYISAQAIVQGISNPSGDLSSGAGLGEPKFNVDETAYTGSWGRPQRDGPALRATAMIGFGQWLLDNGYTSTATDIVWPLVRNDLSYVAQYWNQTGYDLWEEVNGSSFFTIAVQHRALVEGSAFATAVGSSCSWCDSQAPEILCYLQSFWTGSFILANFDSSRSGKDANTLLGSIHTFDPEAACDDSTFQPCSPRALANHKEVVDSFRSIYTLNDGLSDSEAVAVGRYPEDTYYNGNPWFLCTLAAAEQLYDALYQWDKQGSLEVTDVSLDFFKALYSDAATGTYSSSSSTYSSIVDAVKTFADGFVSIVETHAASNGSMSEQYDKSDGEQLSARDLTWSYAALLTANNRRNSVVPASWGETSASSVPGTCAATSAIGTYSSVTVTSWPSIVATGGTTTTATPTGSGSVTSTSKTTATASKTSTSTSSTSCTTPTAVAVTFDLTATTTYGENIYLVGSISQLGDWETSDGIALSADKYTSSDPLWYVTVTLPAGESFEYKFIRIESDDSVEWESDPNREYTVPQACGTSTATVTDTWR
# T1 sequence (P10482 whole entry): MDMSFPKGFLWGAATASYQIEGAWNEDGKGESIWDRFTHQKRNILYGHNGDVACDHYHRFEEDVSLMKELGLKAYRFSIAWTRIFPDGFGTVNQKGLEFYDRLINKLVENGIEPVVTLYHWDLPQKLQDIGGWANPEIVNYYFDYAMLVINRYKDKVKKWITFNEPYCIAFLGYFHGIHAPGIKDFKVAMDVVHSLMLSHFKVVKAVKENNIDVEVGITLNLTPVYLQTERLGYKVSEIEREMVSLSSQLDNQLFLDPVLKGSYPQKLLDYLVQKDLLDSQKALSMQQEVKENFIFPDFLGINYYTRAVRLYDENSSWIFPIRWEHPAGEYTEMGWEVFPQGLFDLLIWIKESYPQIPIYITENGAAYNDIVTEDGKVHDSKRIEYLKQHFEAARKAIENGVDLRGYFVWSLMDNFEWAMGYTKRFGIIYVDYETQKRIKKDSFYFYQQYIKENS
# Sequence of Beta-glucosidase A (Caldicellulosiruptor saccharolyticus) (P10482 whole entry): as above
SMILES,IC50 [1],inhibition [4],inhibition (Prunus dulcis [6]),inhibition [7],inhibition [8],inhibition [9],inhibition [10],inhibition [12],inhibition [14],further results
OC1C=CC(NCc2ccc(Oc3ccccc3)cc2)C(O)C1O (stereo in doubt; 4j),43 µM,,,,,,,,,Ki [2]: 13 µM; IC50 (Beta-glucosidase A [3]): 52 µM
COc1ccc(CNC2C=CC(O)C(O)C2O)cc1 (stereo in doubt; 4g),,inactive,95%,inactive,inactive,inactive,68%,,,inhibition [5]: 74%
OC1C=CC(NCc2ccccc2)C(O)C1O (stereo in doubt; 4e),,inactive,96%,inactive,inactive,inactive,43%,,,inhibition [11]: 74%
CCCNC1C=CC(O)C(O)C1O (racemic),66 µM,inactive,,inactive,inactive,,,30%,inactive,inhibition (Prunus dulcis [13]): 80%
Oc1ccc(CNC2C=CC(O)C(O)C2O)cc1 (stereo in doubt; 4f),,inactive,93%,inactive,,,56%,57%,,inhibition [15]: 31%; inhibition [16]: 67%
OC1C=CC(NCc2ccc(-c3ccccc3)cc2)C(O)C1O (stereo in doubt; 4i),32 µM,,,,,,,,,IC50 (Beta-glucosidase A [17]): 35 µM; Ki [2]: 8 µM
OC1C=CC(NCc2ccc(Cl)cc2)C(O)C1O (stereo in doubt; 4h),35 µM,,,,,,,,,IC50 (Beta-glucosidase A [3]): 185 µM
Oc1ccccc1CNC1C=CC(O)C(O)C1O (stereo in doubt; 4k),,,,inactive,inactive,,,29%,inactive,inhibition [18]: 41%; inhibition (Prunus dulcis [19]): inactive; inhibition [20]: inactive
CCCCCCCCNC1C=CC(O)C(O)C1O (racemic),,inactive,85%,inactive,inactive,inactive,,,inactive,IC50 [21]: 69 µM
